Measured values reported in patent publication US10722495B2, “Cyanoindazole compounds and uses thereof” (Incyte Corporation, priority 2017, dated 2020).

Molecular target: HPK1 (Homo sapiens (Human), UniProt Q92918)
Assay: HPK1 Kinase Binding Assay
Conditions: active HPK1 (SignalChem M23-11G), tracer 222, LanthaScreen Eu-Anti GST antibody, one hour incubation at 25° C.
Procedure: Example A. HPK1 Kinase Binding Assay
A stock solution of 1 mM test compound was prepared in DMSO. The compound plate was prepared by 3-fold and 11-point serial dilutions. 0.1 μL of the compound in DMSO was transferred from the compound plate to the white 384 well polystyrene plates. The assay buffer contained 50 mM HEPES, pH 7.5, 0.01% Tween-20, 5 mM MgCl2, 0.01% BSA, and 5 mM DTT. 5 μl of 4 nM active HPK1 (SignalChem M23-11G) prepared in the buffer was added to the plate. The enzyme concentration given was based on the given stock concentration reported by the vender. 5 μl of 18 nM tracer 222 (ThermoFisher PV6121) and 4 nM LanthaScreen Eu-Anti GST antibody (ThermoFisher PV5595) were added. After one hour incubation at 25° C., the plates were read on a PHERAstar FS plate reader (BMG Labtech). Ki values were determined.

Chain of HPK1 (Q92918 1-346): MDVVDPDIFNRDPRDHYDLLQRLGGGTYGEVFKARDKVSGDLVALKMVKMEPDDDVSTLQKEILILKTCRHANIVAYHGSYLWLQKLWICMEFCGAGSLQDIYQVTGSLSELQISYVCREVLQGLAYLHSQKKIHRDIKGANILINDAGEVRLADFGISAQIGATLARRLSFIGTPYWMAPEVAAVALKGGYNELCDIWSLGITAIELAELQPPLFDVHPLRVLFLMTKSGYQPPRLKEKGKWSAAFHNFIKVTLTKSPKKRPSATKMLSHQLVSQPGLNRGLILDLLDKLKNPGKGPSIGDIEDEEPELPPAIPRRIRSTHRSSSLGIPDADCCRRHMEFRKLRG

Row | Structure (SMILES) | Ki
1 | CCn1cc(-c2n[nH]c3cc(C#N)c(-c4c(C)cc(CNC)cc4F)cc23)cn1 [Example 1, 3-(1-Ethyl-1H-pyrazol-4-yl)-5-(2-fluoro-6-methyl-4-((methylamino)methyl)phenyl)-1H-indazole-6-carbonitrile] | ≤ 100 nM
2 | CNCc1cc(C)c(-c2cc3c(-c4cnn(C5CC5)c4)n[nH]c3cc2C#N)c(F)c1 [Example 2, 3-(1-Cyclopropyl-1H-pyrazol-4-yl)-5-(2-fluoro-6-methyl-4-((methylamino)methyl)phenyl)-1H-indazole-6-carbonitrile] | ≤ 100 nM
3 | CNCc1cc(C)c(-c2cc3c(-c4cnn(CC(F)(F)F)c4)n[nH]c3cc2C#N)c(F)c1 [Example 3, 5-(2-Fluoro-6-methyl-4-((methylamino)methyl)phenyl)-3-(1-(2,2,2-trifluoroethyl)-1H-pyrazol-4-yl)-1H-indazole-6-carbonitrile] | ≤ 100 nM
4 | CNCc1cc(C)c(-c2cc3c(-c4cn[nH]c4)n[nH]c3cc2C#N)c(F)c1 [Example 4, 5-(2-Fluoro-6-methyl-4-((methylamino)methyl)phenyl)-3-(1H-pyrazol-4-yl)-1H-indazole-6-carbonitrile] | ≤ 100 nM
5 | CNCc1cc(C)c(-c2cc3c(-c4cnn(-c5ccccc5Cl)c4)n[nH]c3cc2C#N)c(F)c1 [Example 5, 3-(1-(2-Chlorophenyl)-1H-pyrazol-4-yl)-5-(2-fluoro-6-methyl-4-((methylamino)methyl)phenyl)-1H-indazole-6-carbonitrile] | ≤ 100 nM
6 | CNCc1cc(C)c(-c2cc3c(-c4cnn(C(C)C)c4)n[nH]c3cc2C#N)c(F)c1 [Example 6, 5-(2-Fluoro-6-methyl-4-((methylamino)methyl)phenyl)-3-(1-isopropyl-1H-pyrazol-4-yl)-1H-indazole-6-carbonitrile] | ≤ 100 nM
7 | CNCc1cc(C)c(-c2cc3c(-c4ccc(CO)cc4)n[nH]c3cc2C#N)c(F)c1 [Example 7, 5-(2-Fluoro-6-methyl-4-((methylamino)methyl)phenyl)-3-(4-(hydroxymethyl)phenyl)-1H-indazole-6-carbonitrile] | ≤ 100 nM
8 | CNCc1cc(C)c(-c2cc3c(-c4ccc(C(=O)NC)cc4)n[nH]c3cc2C#N)c(F)c1 [Example 8, 4-(6-Cyano-5-(2-fluoro-6-methyl-4-((methylamino)methyl)phenyl)-1H-indazol-3-yl)-N-methylbenzamide] | ≤ 100 nM
9 | CNCc1cc(C)c(-c2cc3c(-c4ccc(C(=O)N(C)C)cc4)n[nH]c3cc2C#N)c(F)c1 [Example 9, 4-(6-Cyano-5-(2-fluoro-6-methyl-4-((methylamino)methyl)phenyl)-1H-indazol-3-yl)-N,N-dimethylbenzamide] | ≤ 100 nM
10 | CNCc1cc(C)c(-c2cc3c(-c4ccc(NC(C)=O)cc4)n[nH]c3cc2C#N)c(F)c1 [Example 10, N-(4-(6-Cyano-5-(2-fluoro-6-methyl-4-((methylamino)methyl)phenyl)-1H-indazol-3-yl)phenyl)acetamide] | ≤ 100 nM
11 | CNCc1cc(C)c(-c2cc3c(-c4ccc(C)cc4)n[nH]c3cc2C#N)c(F)c1 [Example 11, 5-(2-Fluoro-6-methyl-4-((methylamino)methyl)phenyl)-3-p-tolyl-1H-indazole-6-carbonitrile] | ≤ 100 nM
12 | CNCc1cc(C)c(-c2cc3c(-c4cccc(OC)c4)n[nH]c3cc2C#N)c(F)c1 [Example 12, 5-(2-Fluoro-6-methyl-4-((methylamino)methyl)phenyl)-3-(3-methoxyphenyl)-1H-indazole-6-carbonitrile] | ≤ 100 nM
13 | CNCc1cc(C)c(-c2cc3c(-c4ccc(OC)cc4)n[nH]c3cc2C#N)c(F)c1 [Example 13, 5-(2-Fluoro-6-methyl-4-((methylamino)methyl)phenyl)-3-(4-methoxyphenyl)-1H-indazole-6-carbonitrile] | ≤ 100 nM
14 | CNCc1cc(C)c(-c2cc3c(-c4ccc(C(F)(F)F)cc4)n[nH]c3cc2C#N)c(F)c1 [Example 14, 5-(2-Fluoro-6-methyl-4-((methylamino)methyl)phenyl)-3-(4-(trifluoromethyl)phenyl)-1H-indazole-6-carbonitrile] | ≤ 100 nM
15 | CNCc1cc(C)c(-c2cc3c(-c4ccc(C5CC5)cc4)n[nH]c3cc2C#N)c(F)c1 [Example 15, 3-(4-Cyclopropylphenyl)-5-(2-fluoro-6-methyl-4-((methylamino)methyl)phenyl)-1H-indazole-6-carbonitrile] | ≤ 100 nM
16 | CNCc1cc(C)c(-c2cc3c(-c4ccc(CC#N)cc4)n[nH]c3cc2C#N)c(F)c1 [Example 16, 3-(4-(Cyanomethyl)phenyl)-5-(2-fluoro-6-methyl-4-((methylamino)methyl)phenyl)-1H-indazole-6-carbonitrile] | ≤ 100 nM

Row | Structure (SMILES) | Ki
17 | CNCc1cc(C)c(-c2cc3c(-c4ccc(C(=O)NC)c(F)c4)n[nH]c3cc2C#N)c(F)c1 [Example 17, 4-(6-Cyano-5-(2-fluoro-6-methyl-4-((methylamino)methyl)phenyl)-1H-indazol-3-yl)-2-fluoro-N-methylbenzamide] | ≤ 100 nM
18 | CNCc1cc(C)c(-c2cc3c(-c4ccc(S(C)(=O)=O)cc4)n[nH]c3cc2C#N)c(F)c1 [Example 18, 5-(2-Fluoro-6-methyl-4-((methylamino)methyl)phenyl)-3-(4-(methylsulfonyl)phenyl)-1H-indazole-6-carbonitrile] | ≤ 100 nM
19 | CNCc1cc(C)c(-c2cc3c(-c4ccc(C(C)(C)C#N)cc4)n[nH]c3cc2C#N)c(F)c1 [Example 19, 3-(4-(2-Cyanopropan-2-yl)phenyl)-5-(2-fluoro-6-methyl-4-((methylamino)methyl)phenyl)-1H-indazole-6-carbonitrile] | ≤ 100 nM
20 | CNCc1cc(C)c(-c2cc3c(-c4ccc(C5(C#N)CC5)cc4)n[nH]c3cc2C#N)c(F)c1 [Example 20, 3-(4-(1-Cyanocyclopropyl)phenyl)-5-(2-fluoro-6-methyl-4-((methylamino)methyl)phenyl)-1H-indazole-6-carbonitrile] | ≤ 100 nM
21 | CNCc1cc(C)c(-c2cc3c(-c4ccc(C(=O)N(C)C)c(F)c4)n[nH]c3cc2C#N)c(F)c1 [Example 21, 4-(6-Cyano-5-(2-fluoro-6-methyl-4-((methylamino)methyl)phenyl)-1H-indazol-3-yl)-2-fluoro-N,N-dimethylbenzamide] | ≤ 100 nM
22 | CNCc1cc(C)c(-c2cc3c(-c4ccc(C(=O)NC(C)C)cc4Cl)n[nH]c3cc2C#N)c(F)c1 [Example 22, 3-Chloro-4-(6-cyano-5-(2-fluoro-6-methyl-4-((methylamino)methyl)phenyl)-1H-indazol-3-yl)-N-isopropylbenzamide] | ≤ 100 nM
23 | CNCc1cc(C)c(-c2cc3c(-c4ccc(S(C)(=O)=O)c(F)c4)n[nH]c3cc2C#N)c(F)c1 [Example 23, 3-(3-Fluoro-4-(methylsulfonyl)phenyl)-5-(2-fluoro-6-methyl-4-((methylamino)methyl)phenyl)-1H-indazole-6-carbonitrile] | ≤ 100 nM
24 | CNCc1cc(C)c(-c2cc3c(-c4ccc(S(C)(=O)=O)cc4Cl)n[nH]c3cc2C#N)c(F)c1 [Example 24, 3-(2-Chloro-4-(methylsulfonyl)phenyl)-5-(2-fluoro-6-methyl-4-((methylamino)methyl)phenyl)-1H-indazole-6-carbonitrile] | ≤ 100 nM
25 | CNCc1cc(C)c(-c2cc3c(-c4ccc(S(=O)(=O)C(C)C)cc4)n[nH]c3cc2C#N)c(F)c1 [Example 25, 5-(2-Fluoro-6-methyl-4-((methylamino)methyl)phenyl)-3-(4-(isopropylsulfonyl)phenyl)-1H-indazole-6-carbonitrile] | ≤ 100 nM
26 | CNCc1cc(C)c(-c2cc3c(-c4cnn(C)c4)n[nH]c3cc2C#N)c(F)c1 [Example 26, 5-(2-Fluoro-6-methyl-4-((methylamino)methyl)phenyl)-3-(1-methyl-1H-pyrazol-4-yl)-1H-indazole-6-carbonitrile] | ≤ 100 nM
27 | CNCc1cc(C)c(-c2cc3c(-c4cnc(N5CCN(C)CC5)nc4)n[nH]c3cc2C#N)c(F)c1 [Example 27, 5-(2-Fluoro-6-methyl-4-((methylamino)methyl)phenyl)-3-(2-(4-methylpiperazin-1-yl)pyrimidin-5-yl)-1H-indazole-6-carbonitrile] | ≤ 100 nM
28 | CNCc1cc(C)c(-c2cc3c(-c4ccc(N5CCOCC5)nc4)n[nH]c3cc2C#N)c(F)c1 [Example 28, 5-(2-Fluoro-6-methyl-4-((methylamino)methyl)phenyl)-3-(6-morpholinopyridin-3-yl)-1H-indazole-6-carbonitrile] | ≤ 100 nM
29 | CNCc1cc(C)c(-c2cc3c(-c4ccc(NC(C)=O)nc4)n[nH]c3cc2C#N)c(F)c1 [Example 29, N-(5-(6-Cyano-5-(2-fluoro-6-methyl-4-((methylamino)methyl)phenyl)-1H-indazol-3-yl)pyridin-2-yl)acetamide] | ≤ 100 nM
30 | CNCc1cc(C)c(-c2cc3c(-c4ccc(N5CCN(C(C)=O)CC5)nc4)n[nH]c3cc2C#N)c(F)c1 [Example 30, 3-(6-(4-Acetylpiperazin-1-yl)pyridin-3-yl)-5-(2-fluoro-6-methyl-4-((methylamino)methyl)phenyl)-1H-indazole-6-carbonitrile] | ≤ 100 nM
31 | CNCc1cc(C)c(-c2cc3c(-c4ccnc(C)c4)n[nH]c3cc2C#N)c(F)c1 [Example 31, 5-(2-Fluoro-6-methyl-4-((methylamino)methyl)phenyl)-3-(2-methylpyridin-4-yl)-1H-indazole-6-carbonitrile] | ≤ 100 nM
32 | CNCc1cc(C)c(-c2cc3c(-c4ccc(C5CCOCC5)nc4)n[nH]c3cc2C#N)c(F)c1 [Example 32, 5-(2-Fluoro-6-methyl-4-((methylamino)methyl)phenyl)-3-(6-(tetrahydro-2H-pyran-4-yl)pyridin-3-yl)-1H-indazole-6-carbonitrile] | ≤ 100 nM
